Test [1] has as its system HIV-1. In words: Anti-HIV-1 activity, p24 antigen assay in infected PBMC (Example 1). The class given is cell-based. The settings on record: for IC50: read-out: IC50, HIV-1 replication (p24 antigen). On the procedure:
Subsequently, cells were cultured in 96-well microtiter plates (100 μl/well; 2×10^6/ml, triplicate wells) in the presence and absence of various concentrations (0.00 μM to 100 μM) of drugs for 7 days. Aliquots of culture supernatants were removed from the wells on the 7th day after infection for p24 antigen enzyme immunoassay as an indication of viral replication. Erice et al. Antimicrob. Agents and Chemother. […] Agents and Chemother. […] Percent inhibition of virus replication was calculated by comparing the p24 antigen values from the test drug-treated infected cells with p24 antigen values from untreated infected cells. […] Cell viability was quantified by a colorimetric […] assay. F. M. Uckun et al., Antimicrob. Agents and Chemother.

Test [2] relates to normal human endocervical epithelial cells. The experiment in a line: cells. The settings on record: 24 h, read-out: Endocervical cells IC50. The class given is cell-based. On the procedure: (§1) The potential cytotoxicity of aryl phosphate derivatives of bromo-methoxy ZDV in comparison to N-9, against normal human ectocervical and endocervical epithelial cells (Clonetics Corporation, San Diego, Calif.), was measured using MTT (3-[4,5-dimethylthiazol-2-yl]-2,5-diphenyl tetrazolium bromide) cell viability assays (Boehringer Mannheim Corp., Indianapolis, Ind.) [see, D'Cruz O J, et al., Mol Hum Reprod 1999; 5:421-432; D'Cruz O J, et al., Contraception 1999; 59 (in press); and Uckun F M, et al., Antimicrob Agents Chemther 1998; 42:383-388]. Briefly, exponentially growing ectocervical and endocervical epithelial cells were seeded into 96-well plate at a density of 2×10^5 cells/well and incubated for 24 h at 37° C. prior to drug exposure. On the day of treatment, culture medium was carefully aspirated from the wells and replaced with fresh medium containing drug concentrations ranging from 3.9 μM to 1000 μm. Triplicate wells were used for each treatment. The cells were incubated with the various compounds for 24 hours at 37° C. in a humidified 5% CO2 atmosphere. To each well, 10 μl of MTT (0.5 mg/ml final concentration) was added and the plates were incubated at 37° C. for 4 hours to allow MTT to form formazan crystals by reacting with metabolically active cells. The formazan crystals were solubilized overnight at 37° C. in a solution containing 10% SDS in 0.01 M HCl. The absorbance of each well was measured in a microtiter reader at 540 nm and a reference wavelength of 690 nm. To translate the OD540 values into the number of live cells in each well, the OD540 values were compared to those of standard OD540 versus cell number curves generated for each cell line. The percent cell survival was calculated using the formula: % survival=live cell number[test]/live cell number[control]×100. The results were expressed as IC50 values. The IC50 was defined as the concentration required for 50% reduction in cell survival. Two separate experiments were performed in triplicate to assess the potential cytotoxicity of spermicidal WHI-07 analogues against ectocervical and endocervical epithelial cells.

The subject of test [3] is normal human ectocervical epithelial cells. The experiment in a line: cells. The class given is cell-based. The settings on record: 24 h, read-out: Ectocervical cells IC50. On the procedure: as §1
Test [4] concerns sperm acrosome. The experiment in a line: Sperm acrosome and membrane integrity by FITC-lectin staining, confocal, SEM and TEM (Example 4). The class given is cell-based, human. The settings on record: for acrosome status by confocal microscopy (FITC-lectin) / acrosome-intact sperm: 100 μM; for acrosome status by confocal microscopy (FITC-lectin) / sperm head membranes by transmission electron microscopy / acrosome-intact sperm: 3 hours; for sperm head topography by scanning electron microscopy: 100 μM WHI compounds or 10 μM Cal A23187, 3 hours; for acrosome-intact sperm: method counts percentages of sperm with intact acrosome. On the procedure: The percentages of sperm with an intact acrosome were evaluated by fluorescence microscopy (Olympus BX-60) following fixation and ethanol permeabilization of the sperm pellets and subsequent staining with fluorescein (FITC)-conjugated Pisum sativum lectin (Sigma). In positive control sperm, the acrosome reaction was induced by incubating (3 hours at 37° C.) the sperm suspension with 10 μm calcium ionophore (Cal) A23187 (Sigma). […] The percentage of sperm positive for PI were determined by flow cytometry using a FACS Vantage flow cytometer (Becton Dickinson and Co., Mountain View, Calif.). The sperm in the swim-up fractions were identified by their characteristic forward and 90° angle light scattering properties [O. J. D'Cruz and G. G. Haas, Jr. Fertil. Steril. 58, 633 (1992)]. All analyses were done using the 488-nm excitation from an krypton/argon laser with a 635-nm band pass filter for PI emission. The percentage of sperm positive for PI staining were determined using cutoff signals for membrane-intact motile sperm.
Ethanol permeabilized and air-dried sperm smears were stained sequentially with the three fluorescent markers, FITC-Pisum sativum, TOTO-3 iodide, and Nile red, each marking a different target (acrosome, nucleus, and plasma membrane of permeabilized sperm respectively). Samples were examined under a BioRad MRC-1024 Laser Scanning Confocal Microscope (BioRad Laboratories, Hercules, Calif.) equipped with a krypton/argon mixed gas laser (excitation lines 488, 568, and 647 nm) and mounted on a Nikon Eclipse E800 series upright microscope. The fluorescence emission of fluorescein, TOTO-3 iodide, and Nile red from the acrosomal region, nucleus, and the plasma membrane of sperm after ethanol permeabilization were simultaneously detected using the 598/40 nm, 522 DF32, and 680 DF32 emission/filter respectively. Confocal images were obtained using a Nikon 60× (NA 1.35) objective lens and Kalman collection filter. Digitized images were processed with the Adobe Photoshop software (Adobe Systems, Mountain View, Calif.). Final images were printed using a Fujix Pictography 3000 (Fuji Photo Film Co., Tokyo, Japan) color printer.
High-resolution low-voltage scanning electron microscopy was utilized for topographical imaging of different membrane domains over the sperm head as described [M. H. Stoffel et al. Molecular. Reprod. Develop. 34, 175 (1993); S. L. Erlandsen et al. Scanning 11, 169 (1989)]. […] Washed sperm suspensions were placed on 0.1% poly-L-lysine-coated glass chips and allowed to adhere to the glass over a 60 minute incubation period on ice. The supernatants were decanted, and adherent cells were fixed in 1% paraformaldehyde and 1% glutaraldehyde in 0.14 M sodium cacodylate buffer for 3 hours. To preserve plasma membrane integrity, sperm were post-fixed in 1% osmium tetroxide (OSO4) containing 0.1% ruthenium red in 0.14 M cacodylate buffer for 1 hour at 4° C. All samples were dehydrated through an ascending ethanol series, critical point dried, and coated with approximately 2 nm of platinum using ion beam sputtering with argon (4 mA at 10 ke V; Ion Tech Ltd., Middlesex, England). All samples were examined in a Hitachi S-900 SEM at an accelerating voltage of 2 keV. Sperm were observed under low magnification (×2,000-5000) and representative sperm were photographed under intermediate magnification (×18,000-25,000). In each specimen evaluated, at least 200 sperm were scanned for the intactness of sperm acrosomal region.
For transmission electron microscopy, treated sperm were fixed in 3% glutaraldehyde in 5% sucrose in 0.2 M cacodylate buffer for 3 hours at room temperature. The samples were post-fixed in 1% OSO4, 5% sucrose and 0.1% ruthenium red for 2 hours at 4° C. The samples were dehydrated in ascending ethanol series, and embedded in Spurr's epoxy. Thin sections (90 nm) were prepared on a Reichert-Jung Ultracut E and stained with uranyl acetate and lead citrate.

[5] abbreviates: Homo sapiens, Epithelial cell, MTT, mean ± SD of two experiments.
Setting [6] is: MTT, mean ± SD of two experiments.

Like-named read-outs stand apart in the source and are kept apart here. Where only a bound is given, the exact number is not on record here.

What is called IC50 is the concentration that inhibits the measured activity by half. On to `CCCCCCCCCc1ccc(OCCOCCOCCOCCOCCOCCOCCOCCOCCO)cc1` [Compound N-9, nonoxynol-9, reference compound], for which the IC50 worked out at 2.19 µM in test [1] (Human immunodeficiency virus 1, PBMC, 168 h, human peripheral blood mononuclear cells, 7 days); 16 ± 5 µM in test [2] (setting [5]); 22 ± 8 µM in test [3] (setting [5]). Moreover, the “acrosome status by confocal microscopy (FITC-lectin)” value (shortened to “acrosome status”) in test [4] was “only acrosome-reacted sperm”.

For “5-Bromo-6-methoxy-5,6-dihydro-3′-azidothymidine 5′-[Phenyl methoxyalaninyl phosphate] [WHI-04]”, the IC50 in test [2] (setting [6]) and in test [3] (setting [6]) was greater than 1000 µM throughout.

As for `COC(=O)C(C)NP(=O)(OCC1OC(N2C(=O)NC(=O)C(C)(Br)C2OC)CC1N=[N+]=[N-])Oc1ccc(Br)cc1` (centres unmarked) [WHI-07, 5-Bromo-6-methoxy-5,6-dihydro-3′-azidothymidine-5′-(p-Bromophenyl Methoxyalaninyl Phosphate)], the IC50 in test [1] (Human immunodeficiency virus 1, PBMC, 168 h) came to 0.005 µM. The “anti-HIV potency relative to N-9” value in test [1] (ratio of IC50 values) was 439 fold. The IC50 in test [2] (Homo sapiens, Epithelial cell) stood at 312 ± 38 µM. Besides, the IC50 in test [3] (Homo sapiens, Epithelial cell) is greater than 1000 µM. In test [4], the “sperm head topography by scanning electron microscopy” value is reported as “mild acrosomal membrane ruffling”; the “acrosome status” value is on record as “uniform, bright green fluorescence”; the “sperm head membranes by transmission electron microscopy” value was “intactness of the plasma membrane, outer, and inner acrosomal membranes”; the acrosome-intact sperm is 93.0±5.6.

On to “5-bromo-6-methoxy-5,6-dihydro-3 ′-azidothymidine-5 ′-(p-methoxyphenyl) methoxyalaninyl phosphate [WHI-05]”, for which the IC50 in test [1] (human peripheral blood mononuclear cells, 7 days) stood at 0.05 µM. Besides, the IC50 in test [2] (setting [6]) was found to be 388 ± 38 µM. Further, in test [3] (setting [6]), the IC50 was greater than 1000 µM. In test [4], the “sperm head topography by scanning electron microscopy” value was “intact acrosomes”; the “acrosome status” value is reported as “uniform, bright green fluorescence”; the “sperm head membranes by transmission electron microscopy” value was “intactness of the plasma membrane, outer, and inner acrosomal membranes”; the acrosome-intact sperm was 97.0±2.0.

In the case of “5-Bromo-6-methoxy-5,6-dihydro-3′-azidothymidine-5′-[(p-Fluorophenyl methoxyalaninyl phosphate] [WHI-06]”, the IC50 was 939 ± 157 µM in test [2] (setting [6]) and 304 ± 79 µM in test [3] (setting [6]).

The values above are taken from patent US6482805B2 (Parker Hughes Institute, priority 1998, dated 2002).
